Assay [1] concerns G317 patient-derived glioma cells. The assay is described as follows: Growth inhibition (GI50, PrestoBlue, 5 d) in patient-derived glioma cells G317. In kind it is cell-based, human. The following applies: Homo sapiens, Glioma cell, 120 h, 5 d treatment, growth related to t=0 and DMSO, extrapolated from sigmoidal dose-response curve, read-out: GI50 (50% of growth inhibition) in G317. On the procedure: Cells were treated with each inhibitor at concentrations ranging from 1 to 10,000 nM and PrestoBlue assay used at day 5 to detect viability. […] Data are means ± SEM of 3 independent experiments in triplicates.
(§1) U87 and T98 cells (ATCC) were cultured in DMEM (Gibco), supplemented with 10% (v/v) FBS (Gibco) and 2 mM L-Glutamine (Gibco) in a standard incubator (95% humidity, 5% CO2), and subcultured twice per week through trypsinization. G317 patient-derived glioma cells were established by the Glioma Cellular Genetics Resource (gcgr.org.uk) funded by Cancer Research UK. Ethics approval for use of patient-derived cells and early access confirmation to reagents from the Glioma Cellular Genetics Resource assured that all ethical issues according to UK legislation are fulfilled. G317 were cultured in DMEM/HAMS-F12 (Sigma) supplemented with 1.5 g L^−1 D-(+)-Glucose (Sigma), MEM non-essential aminoacids (Gibco), 0.015% (w/v) Penicillin-Streptomycin (Gibco), 0.012% (w/v) BSA (Gibco), 0.1 mM β-mercaptoethanol (Gibco), B27 (Gibco) and N2 supplements (Gibco). Cells were detached using accutase solution (Sigma) and subcultured once per week. Before adding to the cells, medium was supplemented with 10 ng ml^−1 mouse EGF (Preprotech), 10 ng ml^−1 human FGF (Preprotech), and 1 µg ml^−1 Laminin (Sigma).
(§2) 1 × 10^3 U87 cells/well, 5 × 10^2 T98 cells/well, 1 × 10^4 G317 cells/well, 1 × 10^4 HBVP cells/well and 1 × 10^4 bEnd3 cells/well were seeded in 96-well plates. After 48 h in culture, cells were treated with the inhibitors for 5 d. For GI50 determination, the viability of a triplicate sample of each experiment before treatment was measured with the PrestoBlue Reagent (Invitrogen), to establish a basepoint 0% of growth. […] ZIP Synergy scores were obtained with Synergy finder.[22] Viability percentage, EC50 and GI50 values were obtained using GraphPad Prism version 8.0.0 for Windows, GraphPad Software, San Diego, California USA, www.graphpad.com.
Table S2 . GI 50 values (nM) calculated for eCF309 , eCF311 , eCF312 , eCF324 , eCF325 and controls
Cells were treated with 10, 3, 1 µM,
300, 100, 30, 10, 3, 1, 0 nM of each inhibitor during 5 d. Cell growth (PrestoBlue) was related to t=0 (before
drug treatment), and GI 50 values were extrapolated from their corresponding sigmoidal dose-response curve

Assay [2] relates to U87 cells. The assay is described as follows: Cell viability assay (PrestoBlue, 5 d) in U87 glioma cells. In kind it is cell-based. The following applies: library screen, 5 d treatment, mean of three independent experiments in triplicates, read-out: EC50 U87 ± SEM. The method, then:
(§3) The antiproliferative activity of a total of 100 compounds was tested against U87 and T98 glioma cell lines, using TMZ[3] and the Topoisomerase I inhibitor SN-38[18] as positive controls. Cells were treated with the library members for 5 d at three different concentrations (3, 30 and 300 µM) and cell viability determined using the PrestoBlue reagent. Half-maximal effective concentration (EC50) values were calculated from the corresponding dose-response curves and plotted in Fig. 2a as a heatmap to facilitate data analysis, with black meaning no activity and dark to light green to yellow transitions indicating decreasing EC50 values (=increasing potencies). Table 1 of the Suppl. Data contains the corresponding EC50 values ± SEM.
(§4) INK128 and SN-38 were used as positive controls. […] Structurally, these derivatives differed in the size of the alkyl group of the N1 position and the presence or absence of an oxygen atom in that moiety (see Suppl. Data).
as §1, §2

Assay [3] has as its system T98 cells. The assay is described as follows: Cell viability assay (PrestoBlue, 5 d) in T98 glioma cells. The following applies: library screen, 5 d treatment, mean of three independent experiments in triplicates, read-out: EC50 T98 ± SEM. In kind it is cell-based. The method, then: as §3, §4, §1, §2

Read-outs that look alike come from different tables or passages of the source.

In the case of `COC(Cn1nc(-c2ccc3oc(N)nc3c2)c2c(N)ncnc21)OC` [eCF312], in assay [1], the concentration for 50% growth inhibition (GI50) – broadly, the concentration giving 50% growth inhibition – is 0.0369 µM. Besides, the EC50 (as a rule, the midpoint of the concentration-response curve) was 0.116 ± 0.021 µM in assay [2] (Homo sapiens, U-87 MG, 120 h) and 0.08 ± 0.021 µM in assay [3] (Homo sapiens, T98, 120 h).

With `Nc1nc2cc(-c3nn(CC4CCCO4)c4ncnc(N)c34)ccc2o1` (stereo not shown) [eCF325], the concentration for 50% growth inhibition (GI50) in assay [1] was 0.0464 µM. For the same molecule, the EC50 in assay [2] (Homo sapiens, U-87 MG, 120 h) was 0.138 ± 0.023 µM; in assay [3] (Homo sapiens, T98, 120 h), 0.105 ± 0.023 µM.

Regarding `CCc1c2c(nc3ccc(O)cc13)-c1cc3c(c(=O)n1C2)COC(=O)[C@]3(O)CC` [SN-38, reference compound], the GI50 in assay [1] is 0.0129 µM.

As for `Nc1nc2cc(-c3nn(CC4OCCO4)c4ncnc(N)c34)ccc2o1` [eCF311], the GI50 in assay [1] was 0.147 µM. Further, the EC50 in assay [2] (Homo sapiens, U-87 MG, 120 h) amounted to 0.392 ± 0.058 µM; in assay [3] (Homo sapiens, T98, 120 h), 0.323 ± 0.087 µM.

As to `COc1cc(-c2nn(CCN3CCC(N(C)C)CC3)c3ncnc(N)c23)ccc1NC(=O)OC(C)(C)C` [eCF506], the EC50 in assay [2] (Homo sapiens, U-87 MG, 120 h) was found to be 13.6 ± 0.809 µM; in assay [3] (Homo sapiens, T98, 120 h), 9.97 ± 4.88 µM.

`Cc1ccc(-c2nn(CCN3CCC(CCN(C)C)CC3)c3ncnc(N)c23)cc1` [eCF113]: the EC50 in assay [2] is 6.74 ± 1.48 µM; in assay [3], 5.72 ± 1.95 µM.

With `CCOC(Cn1nc(-c2cccc(NC(=O)OC(C)(C)C)c2)c2c(N)ncnc21)OCC` [eCF207], the EC50 in assay [2] and in assay [3] was above 30 µM in each case.

As to `CN(C)C1CCN(CCn2nc(-c3ccc(NC(=O)OC(C)(C)C)cc3)c3c(N)ncnc32)CC1` [eCF543], the EC50 in assay [2] was above 30 µM; in assay [3], 11.4 ± 1.44 µM.

Consider `COc1cc(-c2nn(CCN3CCC(N(C)C)CC3)c3ncnc(N)c23)ccc1NC(=O)OCc1ccccc1` [eCF533], for which the EC50 in assay [2] was 8.22 ± 0.671 µM; in assay [3], 3.79 ± 0.519 µM.

For `CN(C)C1CCN(CCn2nc(-c3ccc(NCc4ccccn4)cc3)c3c(N)ncnc32)CC1` [eCF576], the EC50 in assay [2] and in assay [3] was above 30 µM throughout.

On to `CCOC(Cn1nc(-c2ccc3ncccc3c2)c2c(N)ncnc21)OCC` [eCF203], for which the EC50 in assay [2] and in assay [3] was above 30 µM each time.

In the case of `COc1cc(-c2nn(CCN3CCC(N4CCCC4)CC3)c3ncnc(N)c23)ccc1NC(=O)OC(C)(C)C` [eCF598], the EC50 in assay [2] was above 30 µM; in assay [3] it was 16.4 ± 9.53 µM.

In the case of `CN(C)C1CCN(CCn2nc(-c3ccc(CC(=O)O)cc3)c3c(N)ncnc32)CC1` [eCF556], the EC50 in assay [2] and in assay [3] was above 30 µM in each case.

In the case of `CCN1CCN(c2ccc(-c3nn(Cc4cn(Cc5ccccc5)nn4)c4nc(NC)ncc34)cn2)CC1` [eSM155], the half-maximal effective concentration (EC50) in assay [2] and in assay [3] was above 30 µM throughout.

Turning to `CN(C)C1CCN(CCn2nc(-c3cccc(NC(=O)OC(C)(C)C)c3)c3c(N)ncnc32)CC1` [eCF542], the EC50 in assay [2] and in assay [3] was above 30 µM each time.

`Cc1ccc(-c2nn(CCN3CCC(CO)CC3)c3ncnc(N)c23)cc1` [eCF107]: the EC50 in assay [2] and in assay [3] was above 30 µM each time.

Regarding `CNc1ncc2c(-c3ccc(F)cc3)nn(CC3OCCO3)c2n1` [eSM113], the EC50 in assay [2] and in assay [3] was above 30 µM in each case.

In the case of `CNc1ncc2c(-c3ccc(N4CCN(C)CC4)nc3)nn(CC3CCCC3)c2n1` [eSM157], the results for the EC50 in assay [2] and in assay [3] were 7.28 ± 2.7 µM and 1.71 ± 0.512 µM, respectively.

For the molecule `CN(C)CC1CCN(CCn2nc(-c3cccc(O)c3)c3c(N)ncnc32)CC1` [eCF225], the EC50 in assay [2] and in assay [3] was above 30 µM each time.

Turning to `COC(Cn1nc(-c2cnc3[nH]ccc3c2)c2c(N)ncnc21)OC` [eCF308], the EC50 in assay [2] (Homo sapiens, U-87 MG, 120 h) was 6.16 ± 1.22 µM; in assay [3] (Homo sapiens, T98, 120 h) it was 7.34 ± 1.56 µM.

Consider `COc1ccc(-c2nn(CCN3CCC(N(C)C)CC3)c3ncnc(N)c23)cc1NC(=O)OC(C)(C)C` [eCF558], for which the EC50 in assay [2] and in assay [3] was above 30 µM in each case.

With `Nc1ncnc2c1c(-c1ccc(-c3ccccc3)cc1)nn2CC1CCCC1` [eSM212], the EC50 in assay [2] is above 30 µM; in assay [3] it was 22.8 ± 3.13 µM.

For `CNc1ncc2c(-c3ccc(N4CCN(C(=O)C(C)(C)C)CC4)nc3)nn(CC3CCCC3)c2n1` [eSM150], the EC50 in assay [2] was found to be 22.7 ± 9.53 µM; in assay [3], 10.1 ± 3 µM.

For `COc1ccc(-c2nn(CC3CCCC3)c3ncnc(N)c23)cc1OC` [eSM204], the values for the 50% effective concentration (EC50) in assay [2] and in assay [3] were 8.56 ± 0.564 µM and 6.58 ± 1.47 µM, respectively.

Turning to `COc1cc(-c2nn(CCN3CCC(N(C)C)CC3)c3ncnc(N)c23)ccc1NCc1ccccc1` [eCF575], the EC50 in assay [2] and in assay [3] was above 30 µM throughout.

As for `Cc1ccc(-c2nn(CCN3CCN(CCN(C)C)CC3)c3ncnc(N)c23)cc1` [eCF105], the EC50 in assay [2] and in assay [3] was above 30 µM each time.

Regarding `COc1cc(-c2nn(CCN3CCC(N(C)C)CC3)c3ncnc(N)c23)ccc1NC(=O)NC(C)(C)C` [eCF540], the figures for the half-maximal effective concentration (EC50) in assay [2] and in assay [3] were above 30 µM and 24.8 ± 2.68 µM, respectively.

For the molecule `COc1ccc(-c2nn(CC3CCCC3)c3ncnc(N)c23)cc1` [eSM205], the 50% effective concentration (EC50) in assay [2] amounted to 14.3 ± 6.14 µM; in assay [3], 11.9 ± 6.5 µM.

Take `CCOC(Cn1nc(-c2ccc(C(N)=O)cc2)c2c(N)ncnc21)OCC` [eCF209]: the EC50 in assay [2] and in assay [3] was above 30 µM in each case.

With `CCOC(Cn1nc(-c2cccc(C(N)=O)c2)c2c(N)ncnc21)OCC` [eCF208], the EC50 in assay [2] and in assay [3] was above 30 µM throughout.

Consider `CN(C)C1CCN(CCn2nc(-c3ccc(NC(=O)OC(C)(C)C)nc3)c3c(N)ncnc32)CC1` [eCF549], for which the concentration for a half-maximal effect (EC50) in assay [2] and in assay [3] was above 30 µM in each case.

Take `CCOC(Cn1nc(-c2ccoc2)c2c(N)ncnc21)OCC` [eCF206]: the concentration giving a half-maximal response (EC50) in assay [2] and in assay [3] was above 30 µM throughout.

Take `COc1cc(-c2nn(CCN3CCC(N(C)C)CC3)c3ncnc(N)c23)ccc1NC(=O)NC(C)(C)C` [eCF537]: the EC50 in assay [2] is above 30 µM; in assay [3], 17.6 ± 3.24 µM.

As to `CNc1ncc2c(-c3ccc(N4CCNCC4)nc3)nn(CC3OCCO3)c2n1` [eSM112], the EC50 in assay [2] turned out to be 21.3 ± 2.35 µM; in assay [3] it was 9.26 ± 0.465 µM.

Turning to `Cc1ccc(-c2nn(CCN3CCN(CCO)CC3)c3ncnc(N)c23)cc1` [eCF104], the EC50 in assay [2] and in assay [3] was above 30 µM throughout.

Consider `Cc1ccc(-c2nn(CCN3CCN(C)CC3)c3ncnc(N)c23)cc1` [eCF103], for which the concentration for a half-maximal effect (EC50) in assay [2] and in assay [3] was above 30 µM throughout.

Take `Cc1ccc(-c2nn(CCN3CCC(CN(C)C)CC3)c3ncnc(N)c23)cc1` [eCF112]: the EC50 amounted to 6.63 ± 1.44 µM in assay [2] and 6.28 ± 1.91 µM in assay [3].

Turning to `COc1cc(-c2nn(CCN3CCC(N4CCCCC4)CC3)c3ncnc(N)c23)ccc1NC(=O)OC(C)(C)C` [eCF599], the results for the EC50 in assay [2] and in assay [3] were above 30 µM and 23 ± 13.4 µM, respectively.

Turning to `Nc1ncnc2c1c(-c1ccoc1)nn2C1CCCC1` [eSM209], the EC50 in assay [2] is 23.6 ± 2.51 µM; in assay [3] it was 15.6 ± 1.45 µM.

With `CCOC(Cn1nc(-c2cccc(O)c2)c2c(N)ncnc21)OCC` [eCF205], the EC50 in assay [2] and in assay [3] was above 30 µM in each case.

As to `NC(=O)c1ccc(-c2nn(CC3CCCC3)c3ncnc(N)c23)cc1` [eSM207], the EC50 came to 19.9 ± 6.03 µM in assay [2] and 21.3 ± 3.28 µM in assay [3].

`CNc1ncc2c(-c3ccc(N4CCNCC4)cc3)nn(Cc3cn(Cc4ccccc4)nn3)c2n1` [eSM135]: the EC50 in assay [2] was 13 ± 0.291 µM; in assay [3], 6.26 ± 1.39 µM.

For the molecule `CNc1ncc2c(-c3ccc(OC)cc3)nn(CC3OCCO3)c2n1` [eSM110], the EC50 in assay [2] and in assay [3] was above 30 µM in each case.
